Experimental data taken from article PMC5766608, “Target engagement imaging of PARP inhibitors in small-cell lung cancer” (Nature Communications, 2018).

Assays:
PARP1/2 = assay: Blocking of PARPi-FL uptake by PARP inhibitors (confocal microscopy, flow cytometry); type: cell-based, human; conditions: JHU-LX22 cells
Protocol: Cells were then treated with fluorescent imaging agent PARPi-FL and either imaged via confocal microscopy or measured via flow cytometry. […] Then, cells were trypsinized, subjected to flow cytometry and analyzed for the relative PARPi-FL fluorescence signal. […] Error bars represent the SD of three independent experiments with three parallels each
We conducted confocal laser scanning microscopy to visualize the extent of intracellular blocking of PARPi-FL uptake by different PARPi. […] PARPi-FL was removed and cells were washed in fresh medium for 10 min. Next, cells were treated with 4% Paraformaldehyde (PFA) for 8 min on ice to ensure fixation. […] PARPi-FL intensity was determined by measuring the PARPi-FL fluorescence intensity in all nuclei, which were thresholded using Hoechst staining.
After the respective treatment/staining, which is described below for the different experiments, cells were washed in PBS, trypsinized, washed with flow buffer (1% BSA (w/v) in PBS), transferred to 5 mL flow cytometry tubes through the 40 µm cell strainer cap and left on ice until measurement in the flow cytometer (Fortessa II). Raw data were processed in FlowJo software in order to calculate PARPi-FL uptake per cell. Dead cells were excluded by eliminating DAPI positive cells from the analysis (Supplementary Fig. 8). Cell clumps and debris were eliminated using the corresponding gates (forward and side scatter) for the unstained cell population. PARPi-FL fluorescence was imaged in the FITC channel against side scatter (area).
Controls (cells incubated with medium instead of a PARP inhibitor) served as reference value and their PARPi-FL signal was defined as 100%.
To quantify the extent of blocking of PARPi-FL uptake by different PARPi, we quantified the intracellular PARPi-FL uptake in JHU-LX22 cells after incubation with PARP inhibitors.

TNKS2 = molecular target: T1, TNKS2 (Homo sapiens, UniProt Q9H2K2); assay: PARP family enzyme activity inhibition screening (BPS Bioscience); type: biochemical; conditions: 100 nM inhibitor
T1 construct: purchased BPS Bioscience, San Diego, CA
T1 sequence (Q9H2K2 1-1166): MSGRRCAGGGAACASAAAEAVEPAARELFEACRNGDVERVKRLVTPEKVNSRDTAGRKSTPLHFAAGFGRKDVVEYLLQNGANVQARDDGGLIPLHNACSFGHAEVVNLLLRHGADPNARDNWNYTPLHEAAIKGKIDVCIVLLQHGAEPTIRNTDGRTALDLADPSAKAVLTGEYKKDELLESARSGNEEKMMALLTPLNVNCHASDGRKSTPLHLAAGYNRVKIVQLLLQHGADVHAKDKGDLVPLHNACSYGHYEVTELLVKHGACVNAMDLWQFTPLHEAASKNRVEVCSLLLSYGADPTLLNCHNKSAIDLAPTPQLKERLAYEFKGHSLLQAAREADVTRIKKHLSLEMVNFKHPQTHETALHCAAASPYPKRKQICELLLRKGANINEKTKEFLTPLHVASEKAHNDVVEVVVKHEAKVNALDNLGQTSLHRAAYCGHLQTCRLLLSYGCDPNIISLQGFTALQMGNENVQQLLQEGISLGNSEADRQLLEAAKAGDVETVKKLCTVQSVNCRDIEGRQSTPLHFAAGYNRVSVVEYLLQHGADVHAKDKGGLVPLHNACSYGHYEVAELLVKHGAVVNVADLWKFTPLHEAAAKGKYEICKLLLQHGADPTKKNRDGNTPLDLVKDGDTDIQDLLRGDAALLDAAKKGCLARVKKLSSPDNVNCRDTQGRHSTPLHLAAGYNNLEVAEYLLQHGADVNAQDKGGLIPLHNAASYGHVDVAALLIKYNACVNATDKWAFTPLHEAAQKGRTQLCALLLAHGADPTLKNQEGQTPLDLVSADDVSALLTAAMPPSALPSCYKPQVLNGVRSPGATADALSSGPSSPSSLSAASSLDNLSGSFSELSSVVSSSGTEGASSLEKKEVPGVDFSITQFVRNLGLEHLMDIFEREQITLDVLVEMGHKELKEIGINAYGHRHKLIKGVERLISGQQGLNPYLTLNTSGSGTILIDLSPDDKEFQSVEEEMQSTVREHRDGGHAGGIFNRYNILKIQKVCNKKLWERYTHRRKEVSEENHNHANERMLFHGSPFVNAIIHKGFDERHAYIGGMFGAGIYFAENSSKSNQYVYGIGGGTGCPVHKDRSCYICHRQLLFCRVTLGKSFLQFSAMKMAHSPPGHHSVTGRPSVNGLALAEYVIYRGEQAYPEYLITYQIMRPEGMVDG
Protocol: (§1) Fig. 1 Properties of PARP inhibitors. a Structures of 5 clinical therapeutic PARP inhibitors and the 2 PARP imaging agents. b Heatmap visualizing enzymatic activity screening of 10 small molecules against 12 PARP enzymes at 100 nM concentration (for additional concentrations, see Supplementary Fig. 1)
(§2) Assay was performed by BPS Bioscience, San Diego, CA. 100 µM DMSO solutions of each inhibitor were provided, and the assay was conducted after dilution to 100, 50, or 10 nM. […] Data was reported by BPS as % Enzyme Activity. Triplicates were combined to get a mean ± SD, and these were grouped and plotted onto a heatmap using Prism 7.
(§3) Supplementary Figure 1 | PARP enzyme family binding assays at additional concentrations.
(§4) histone substrate and biotin-labeled NAD+ at 100 nM (Fig. 1b), 50 nM (left) and 10 nM (right) for
(§5) each inhibitor and each enzyme.

PARP2 = molecular target: T2, PARP2 (Homo sapiens, UniProt Q9UGN5); assay: as above; type: biochemical; conditions: 100 nM inhibitor
T2 construct: purchased BPS Bioscience, San Diego, CA
Protocol: as §1, §2, §3, §4, §5

PARP1 = molecular target: T3, PARP1 (Homo sapiens, UniProt P09874); assay: as above; type: biochemical; conditions: 100 nM inhibitor
T3 construct: purchased BPS Bioscience, San Diego, CA
Protocol: as §1, §2, §3, §4, §5

PARP3 = molecular target: T4, PARP3 (Homo sapiens, UniProt Q9Y6F1); assay: as above; type: biochemical; conditions: 100 nM inhibitor
T4 construct: purchased BPS Bioscience, San Diego, CA
T4 sequence (Q9Y6F1 1-533): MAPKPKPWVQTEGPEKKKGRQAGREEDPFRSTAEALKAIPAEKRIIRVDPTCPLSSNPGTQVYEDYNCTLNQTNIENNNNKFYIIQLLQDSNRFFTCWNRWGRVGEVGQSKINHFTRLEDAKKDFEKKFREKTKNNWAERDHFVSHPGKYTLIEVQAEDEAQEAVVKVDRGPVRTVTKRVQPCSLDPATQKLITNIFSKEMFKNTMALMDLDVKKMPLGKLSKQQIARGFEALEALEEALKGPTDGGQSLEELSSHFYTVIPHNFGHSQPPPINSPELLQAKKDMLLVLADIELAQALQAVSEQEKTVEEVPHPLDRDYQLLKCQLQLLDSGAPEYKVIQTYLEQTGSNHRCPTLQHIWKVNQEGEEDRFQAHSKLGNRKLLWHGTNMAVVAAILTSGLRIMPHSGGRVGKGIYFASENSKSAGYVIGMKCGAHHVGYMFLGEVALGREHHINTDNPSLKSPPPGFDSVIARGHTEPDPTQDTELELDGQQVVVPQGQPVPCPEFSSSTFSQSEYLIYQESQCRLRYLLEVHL
Protocol: as §1, §2, §3, §4, §5

T3 sequence (P09874 whole entry): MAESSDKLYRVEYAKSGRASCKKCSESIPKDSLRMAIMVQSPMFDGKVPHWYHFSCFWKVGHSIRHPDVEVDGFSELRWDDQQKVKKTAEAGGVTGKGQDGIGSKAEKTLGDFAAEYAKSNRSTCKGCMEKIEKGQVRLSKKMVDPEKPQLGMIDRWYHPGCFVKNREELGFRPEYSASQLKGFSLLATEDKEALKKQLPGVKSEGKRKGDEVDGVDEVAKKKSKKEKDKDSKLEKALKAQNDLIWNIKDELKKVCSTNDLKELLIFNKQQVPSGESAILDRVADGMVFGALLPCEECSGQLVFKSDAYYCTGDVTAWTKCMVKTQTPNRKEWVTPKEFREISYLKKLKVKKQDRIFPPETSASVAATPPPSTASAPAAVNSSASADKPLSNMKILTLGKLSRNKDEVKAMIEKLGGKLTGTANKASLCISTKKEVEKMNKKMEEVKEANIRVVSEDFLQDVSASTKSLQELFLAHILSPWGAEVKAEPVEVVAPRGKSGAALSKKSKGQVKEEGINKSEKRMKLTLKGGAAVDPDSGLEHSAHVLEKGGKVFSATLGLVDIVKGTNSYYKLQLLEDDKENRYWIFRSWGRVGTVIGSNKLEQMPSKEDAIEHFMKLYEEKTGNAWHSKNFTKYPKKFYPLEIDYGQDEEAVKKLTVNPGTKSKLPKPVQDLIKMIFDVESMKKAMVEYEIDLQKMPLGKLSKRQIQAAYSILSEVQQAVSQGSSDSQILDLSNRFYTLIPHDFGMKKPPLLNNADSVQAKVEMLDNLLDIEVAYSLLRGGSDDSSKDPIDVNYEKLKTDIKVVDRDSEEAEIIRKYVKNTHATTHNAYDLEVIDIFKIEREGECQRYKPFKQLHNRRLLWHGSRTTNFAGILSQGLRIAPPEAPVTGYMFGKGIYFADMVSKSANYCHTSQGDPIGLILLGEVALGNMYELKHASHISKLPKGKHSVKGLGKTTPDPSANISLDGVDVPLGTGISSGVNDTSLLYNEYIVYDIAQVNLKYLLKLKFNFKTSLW
T2 sequence (Q9UGN5 whole entry): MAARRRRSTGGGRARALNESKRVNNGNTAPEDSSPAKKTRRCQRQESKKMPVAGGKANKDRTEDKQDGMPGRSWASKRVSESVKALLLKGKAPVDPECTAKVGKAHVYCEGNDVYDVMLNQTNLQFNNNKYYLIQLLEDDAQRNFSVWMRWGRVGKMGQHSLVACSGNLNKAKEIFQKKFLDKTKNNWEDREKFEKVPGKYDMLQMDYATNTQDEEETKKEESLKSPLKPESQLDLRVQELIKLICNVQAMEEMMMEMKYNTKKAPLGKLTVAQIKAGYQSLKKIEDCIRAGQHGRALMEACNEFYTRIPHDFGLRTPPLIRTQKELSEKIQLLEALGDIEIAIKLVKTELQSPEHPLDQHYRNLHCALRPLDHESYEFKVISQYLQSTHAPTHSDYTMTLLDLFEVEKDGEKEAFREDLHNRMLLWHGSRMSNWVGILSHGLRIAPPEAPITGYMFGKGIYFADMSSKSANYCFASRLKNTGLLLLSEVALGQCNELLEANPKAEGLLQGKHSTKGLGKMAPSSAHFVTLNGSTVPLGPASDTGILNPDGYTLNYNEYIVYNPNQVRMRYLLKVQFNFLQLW

SMILES	Blocking of PARPi-FL uptake / target engagement, in words (PARP1/2; pretreatment with inhibitor, then PARPi-FL)	Inhibition of TNKS2 enzyme activity (TNKS2)	Blocking of PARPi-FL uptake (PARP1/2; pretreatment with PARP inhibitor 25 min, then PARPi-FL 15 min)	Inhibition of PARP2 enzyme activity (PARP2) [%]	Inhibition of PARP1 enzyme activity (PARP1) [%]	Inhibition of PARP3 enzyme activity (PARP3) [%]	inhibition at 0.1 µM (TNKS2) [%]	inhibition at 0.1 µM (PARP2) [%]	inhibition at 0.1 µM (PARP1) [%]	inhibition at 0.1 µM (PARP3) [%]
Cn1ncnc1[C@H]1c2n[nH]c(=O)c3cc(F)cc(c23)N[C@@H]1c1ccc(F)cc1 [Talazoparib, (8S,9R)-5-Fluoro-8-(4-fluorophenyl)-9-(1-methyl-1H-1,2,4-triazol-5-yl)-2,7,8,9-tetrahydro-3H-pyrido[4,3,2-de]phthalazin-3-one]	most complete target engagement	exhibited inhibition	–	–	–	–	–	–	–	–
O=C(c1ccc(F)cc1)N1CCN(C(=O)c2cc(Cc3n[nH]c(=O)c4ccccc34)ccc2F)CC1 [^19F-PARPi]	–	≤ 5%	more than 50%	> 90	> 90	≤ 30	–	–	–	–
CC1=CC(C)=[N+]2C1=Cc1ccc(CCC(=O)N3CCN(C(=O)c4cc(Cc5n[nH]c(=O)c6ccccc56)ccc4F)CC3)n1[B-]2(F)F [PARPi-FL]	–	–	–	–	–	–	≤ 5	> 90	> 90	≤ 30
